The record followed here is US20160151337A1, “ANNELATED PYRROLES AND THEIR USE AS CRAC INHIBITORS” (Grünenthal GmbH, priority 2013, published 2016).

Structures are written as SMILES.

One assay addresses T1, CRAC channel (Homo sapiens, UniProt Q96D31).
T1 construct: endogenous in cells; host or cells: HEK293 (ECACC), untransfected
The assay is described as follows: HEK Calcium Influx Assay (FLIPR), inhibition of store-operated Ca2+ entry after thapsigargin store depletion. As to conditions: 10 μM compound, HEK293 cells, read-out: % inhib. [@ 10 μM] FLIPR. Format: cell-based. A digest of the protocol:
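HEK293 cells loaded with Calcium-4 dye in Ca2+-free HBS (pH 7.4), stores depleted with 2 μM thapsigargin for 10 min (100 μM EGTA); after 3 mM CaCl2 re-addition and 15 min steady-state, compounds added and FLIPR signal averaged 9.5–10 min post-dose. IC50 from 8-point 1:3.16 dilutions from 10 μM, normalised to DMSO and non-depleted wells.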

Assay [1] has as its system Interleukin-2 (IL-2) production/release in Jurkat T cells. The assay is described as follows: Jurkat IL-2 Production Assay (PHA-stimulated, IL-2 AlphaLisa). The format is cell-based. As to conditions: Homo sapiens, PHA 15 μg/ml, 22 h, inhibition of IL-2 production. As to the method:
The effect of compounds of the invention on Interleukin-2 (IL-2) production/release was tested in the Jurkat T cell line (ECACC) clone E6-1.
Jurkat T cells were cultured in DMEM/F12/Glutamax (Gibco) containing 10% FCS (Gibco), and maintained at 37° C., 5% CO2. Cells were split twice a week [5*10^6 (Mon-Thu) and 1*10^7 (Thu-Mon) cells/50 ml medium in 1-175 ZK culture flasks, respectively].
Prior to experiment, cells were seeded on 96 well plates (Cellstar 96 Well; Cat No. 655180, Greiner bio-one) at a density of 5*10^5 cells/well in DMEM/F12/Glutamax (Gibco) containing 10% FCS (Gibco), and incubated for 60 min at 37° C., 5% CO2. Subsequently, compounds were added and cells were allowed to incubate for 30 min at 37° C., 5% CO2. Cells were then stimulated with 15 μg/ml Phyto-hemagglutinin (PHA; Sigma) for 22 hours at 37° C., 5% CO2.
Before sampling of the supernatants, cells were spun down (200*g/5 min/RT). The amount of IL-2 released into the supernatant was quantified with the human IL-2 AlphaLisa kit (Perkin Elmer) according to manufacturer's instructions. Luminescence proximity measurements were carried out in the Synergy H4 reader (BioTek) employing the fluorescence setting of the reader (ex: 680/30 nm; em: 620/40 nm).
Inhibition of IL-2 production/release in/from Jurkat T cells was quantified as follows: Zero percent inhibition (MAX) was defined as the [IL-2] determined in supernatants derived from cells to which PHA & DMSO-only had been added instead of compound. Hundred percent inhibition (MIN) was defined as the [IL-2] determined in supernatants derived from cells that had been pre-treated with 1 μM CyclosporineA (Sigma) before the addition of 15 μg/ml PHA.
For routine IC50 determinations of compounds, 8 concentrations of a serial dilution (1:3.16) were tested, starting off from 10 μM.

T1 sequence (Q96D31 whole entry): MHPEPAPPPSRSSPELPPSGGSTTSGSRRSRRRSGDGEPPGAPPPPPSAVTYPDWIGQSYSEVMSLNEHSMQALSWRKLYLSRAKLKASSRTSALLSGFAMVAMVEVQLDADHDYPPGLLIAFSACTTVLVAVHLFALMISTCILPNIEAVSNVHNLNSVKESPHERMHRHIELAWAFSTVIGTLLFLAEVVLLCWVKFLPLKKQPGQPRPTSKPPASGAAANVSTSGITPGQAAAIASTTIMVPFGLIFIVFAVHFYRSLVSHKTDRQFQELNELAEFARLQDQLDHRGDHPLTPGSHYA

In general, IC50 refers to the concentration that gives 50% inhibition. Turning to `CCOc1cc(C)c(N2CCc3[nH]c(-c4c(F)cccc4F)cc3C2)cn1` [Example 69, 2-(2,6-Difluoro-phenyl)-5-(6-ethoxy-4-methyl-pyridin-3-yl)-4,5,6,7-tetrahydro-1H-pyrrolo[3,2-c]pyridine], the inhibition at 10 µM on CRAC channel was > 70%. Also, in assay [1], the IC50 was in the range of 0.5 to 1 µM.

For the molecule `Cc1cc([S+](C)[O-])ncc1N1CCc2[nH]c(-c3c(F)cccc3F)cc2C1` (stereo not drawn) [Example 70, 2-(2,6-Difluoro-phenyl)-5-[4-methyl-6-(methylsulfinyl)-pyridin-3-yl]-4,5,6,7-tetrahydro-1H-pyrrolo[3,2-c]pyridine], the inhibition at 10 µM on CRAC channel is > 70%. Besides, the IC50 in assay [1] was 1 to 5 µM.

Regarding `Cc1cc(Cl)c(F)cc1N1CCc2[nH]c(-c3c(F)cccc3F)cc2C1` [Example 71, 5-(4-Chloro-5-fluoro-2-methyl-phenyl)-2-(2,6-difluoro-phenyl)-4,5,6,7-tetrahydro-1H-pyrrolo[3,2-c]pyridine], at CRAC channel, the inhibition at 10 µM was < 50%. Further, in assay [1], the IC50 lay within 1 to 5 µM.

Take `Cc1cc(S(C)(=O)=O)ncc1N1CCc2[nH]c(C3CCCCC3)cc2C1` [Example 72, 2-Cyclohexyl-5-(4-methyl-6-methylsulfonyl-pyridin-3-yl)-4,5,6,7-tetrahydro-1H-pyrrolo[3,2-c]pyridine]: the inhibition at 10 µM at CRAC channel is > 70%. Also, the IC50 in assay [1] was < 0.5 µM.

For `Cc1cc(C(F)(F)F)ncc1N1CCc2[nH]c(-c3c(F)cccc3F)cc2C1` [Example 73, 2-(2,6-Difluoro-phenyl)-5-[4-methyl-6-(trifluoromethyl)-pyridin-3-yl]-4,5,6,7-tetrahydro-1H-pyrrolo[3,2-c]pyridine], the inhibition at 10 µM on CRAC channel was > 70%. Moreover, the IC50 in assay [1] was < 0.5 µM.

On to `CCCCc1cc2c([nH]1)CCN(c1cnc(S(C)(=O)=O)cc1C)C2` [Example 74, 2-Butyl-5-(4-methyl-6-methylsulfonyl-pyridin-3-yl)-4,5,6,7-tetrahydro-1H-pyrrolo[3,2-c]pyridine], for which the inhibition at 10 µM on CRAC channel was > 70%. The IC50 in assay [1] was 1 to 5 µM.

On to `Cc1cc(C2CC2)ncc1N1CCc2[nH]c(-c3c(F)cccc3F)cc2C1` [Example 75, 5-(6-Cyclopropyl-4-methyl-pyridin-3-yl)-2-(2,6-difluoro-phenyl)-4,5,6,7-tetrahydro-1H-pyrrolo[3,2-c]pyridine], for which, at CRAC channel, the inhibition at 10 µM was > 70%. For the same molecule, the IC50 in assay [1] was in the range of 1 to 5 µM.

Regarding `Cc1nc(C#N)ccc1N1CCc2[nH]c(-c3c(F)cccc3F)cc2C1` [Example 77, 5-[2-(2,6-Difluoro-phenyl)-4,5,6,7-tetrahydro-1H-pyrrolo[3,2-c]pyridin-5-yl]-6-methyl-pyridine-2-carbonitrile], on CRAC channel, the inhibition at 10 µM is > 70%. Further, in assay [1], the IC50 lay within 1 to 5 µM.

Take `Cc1cc(S(C)(=O)=O)ncc1N1CCc2[nH]c(-c3ccc(F)cc3F)cc2C1` [Example 78, 2-(2,4-Difluoro-phenyl)-5-(4-methyl-6-methylsulfonyl-pyridin-3-yl)-4,5,6,7-tetrahydro-1H-pyrrolo[3,2-c]pyridine]: the inhibition at 10 µM at CRAC channel is > 70%. For the same molecule, the IC50 in assay [1] lay in the range of 0.5 to 1 µM.

On to `Cc1cc(S(C)(=O)=O)ncc1N1CCc2[nH]c(-c3ccccc3F)cc2C1` [Example 79, 2-(2-Fluorophenyl)-5-(4-methyl-6-methylsulfonyl-pyridin-3-yl)-4,5,6,7-tetrahydro-1H-pyrrolo[3,2-c]pyridine], for which the inhibition at 10 µM at CRAC channel was > 70%. In addition, the IC50 in assay [1] fell in the range of 0.5 to 1 µM.

Consider `CC(=O)c1ccc(N2CCc3[nH]c(-c4c(F)cccc4F)cc3C2)c(C)c1` [Example 82, 1-[4-[2-(2,6-Difluoro-phenyl)-4,5,6,7-tetrahydro-1H-pyrrolo[3,2-c]pyridin-5-yl]-3-methyl-phenyl]-ethanone], for which the inhibition at 10 µM on CRAC channel is > 70%. Besides, the IC50 in assay [1] was 0.5 to 1 µM.

Consider `Cc1cc(S(C)(=O)=O)ncc1N1CCc2[nH]c(-c3cccnc3C)cc2C1` [Example 83, 5-(4-Methyl-6-methylsulfonyl-pyridin-3-yl)-2-(2-methyl-pyridin-3-yl)-4,5,6,7-tetrahydro-1H-pyrrolo[3,2-c]pyridine], for which the inhibition at 10 µM on CRAC channel was > 70%. Moreover, the IC50 in assay [1] lay within 1 to 5 µM.

Take `Cc1cc(S(=O)(=O)C(F)(F)F)ccc1N1CCc2[nH]c(-c3c(F)cccc3F)cc2C1` [Example 86, 2-(2,6-Difluoro-phenyl)-5-[2-methyl-4-(trifluoromethylsulfonyl)-phenyl]-4,5,6,7-tetrahydro-1H-pyrrolo[3,2-c]pyridine]: at CRAC channel, the inhibition at 10 µM was < 50%. Moreover, the IC50 in assay [1] lay in the range of 1 to 5 µM.

Take `Cc1cc([S+](C)[O-])ccc1N1CCc2[nH]c(-c3c(F)cccc3F)cc2C1` (stereo not drawn) [Example 87, 2-(2,6-Difluoro-phenyl)-5-[2-methyl-4-(methylsulfinyl)-phenyl]-4,5,6,7-tetrahydro-1H-pyrrolo[3,2-c]pyridine]: the inhibition at 10 µM on CRAC channel was > 70%. The IC50 in assay [1] lay within 1 to 5 µM.

In the case of `Cc1cc(S(C)(=O)=O)ccc1N1CCc2[nH]c(-c3c(F)cccc3F)cc2C1` [Example 88, 2-(2,6-Difluoro-phenyl)-5-(2-methyl-4-methylsulfonyl-phenyl)-4,5,6,7-tetrahydro-1H-pyrrolo[3,2-c]pyridine], the inhibition at 10 µM on CRAC channel lay within 50 to 70%. Moreover, the IC50 in assay [1] was < 0.5 µM.

For `Cc1cc(S(C)(=O)=O)ncc1N1CCc2[nH]c(-c3ccncc3F)cc2C1` [Example 90, 2-(3-Fluoro-pyridin-4-yl)-5-(4-methyl-6-methylsulfonyl-pyridin-3-yl)-4,5,6,7-tetrahydro-1H-pyrrolo[3,2-c]pyridine], on CRAC channel, the inhibition at 10 µM was > 70%. For the same molecule, the IC50 in assay [1] was in the range of 1 to 5 µM.

In the case of `Cc1cc(S(C)(=O)=O)ncc1N1CCc2[nH]c(-c3c(F)cccc3F)c(Br)c2C1` [Example 91, 3-Bromo-2-(2,6-difluoro-phenyl)-5-(4-methyl-6-methylsulfonyl-pyridin-3-yl)-4,5,6,7-tetrahydro-1H-pyrrolo[3,2-c]pyridine], on CRAC channel, the inhibition at 10 µM was in the range of 50 to 70%. In assay [1], the IC50 was in the range of 1 to 5 µM.

For `Cc1cc(C)c(-c2cc3c([nH]2)CCN(c2cnc(S(C)(=O)=O)cc2C)C3)cn1` [Example 92, 2-(4,6-Dimethyl-pyridin-3-yl)-5-(4-methyl-6-methylsulfonyl-pyridin-3-yl)-4,5,6,7-tetrahydro-1H-pyrrolo[3,2-c]pyridine], the inhibition at 10 µM at CRAC channel was > 70%. Further, the IC50 in assay [1] fell in the range of 1 to 5 µM.

On to `Cc1cc(C(F)(F)F)ncc1N1CCc2[nH]c(C3CCOCC3)cc2C1` [Example 93, 5-[4-Methyl-6-(trifluoromethyl)-pyridin-3-yl]-2-tetrahydro-pyran-4-yl-4,5,6,7-tetrahydro-1H-pyrrolo[3,2-c]pyridine], for which the inhibition at 10 µM on CRAC channel was > 70%. The IC50 in assay [1] was 1 to 5 µM.

As for `Cc1cc(S(C)(=O)=O)ncc1N1CCc2[nH]c(-c3cncc(F)c3C)cc2C1` [Example 96, 2-(5-Fluoro-4-methyl-pyridin-3-yl)-5-(4-methyl-6-methylsulfonyl-pyridin-3-yl)-4,5,6,7-tetrahydro-1H-pyrrolo[3,2-c]pyridine], the inhibition at 10 µM at CRAC channel is > 70%. In addition, the 50% inhibitory concentration (IC50) in assay [1] fell in the range of 0.5 to 1 µM.

Turning to `Cc1cc(C(F)(F)F)ncc1N1CCc2[nH]c(C3CCCCC3)cc2C1` [Example 97, 2-Cyclohexyl-5-[4-methyl-6-(trifluoromethyl)-pyridin-3-yl]-4,5,6,7-tetrahydro-1H-pyrrolo[3,2-c]pyridine], the inhibition at 10 µM at CRAC channel was 50 to 70%. Also, the IC50 in assay [1] was 1 to 5 µM.

As for `Cc1sc(-c2ccn(C)n2)nc1N1CCc2[nH]c(-c3c(F)cccc3F)cc2C1` [Example 99, 4-[2-(2,6-Difluoro-phenyl)-4,5,6,7-tetrahydro-1H-pyrrolo[3,2-c]pyridin-5-yl]-5-methyl-2-(1-methyl-1H-pyrazol-3-yl)-thiazole], on CRAC channel, the inhibition at 10 µM is > 70%. The IC50 in assay [1] was < 0.5 µM.

For the molecule `CCOc1cc(C(F)(F)F)c(N2CCc3[nH]c(-c4c(F)cccc4F)cc3C2)cn1` [Example 100, 2-(2,6-Difluoro-phenyl)-5-[6-ethoxy-4-(trifluoromethyl)-pyridin-3-yl]-4,5,6,7-tetrahydro-1H-pyrrolo[3,2-c]pyridine], the inhibition at 10 µM at CRAC channel was < 50%. Further, in assay [1], the IC50 is 1 to 5 µM.

As to `Cc1cc(S(C)(=O)=O)c(F)cc1N1CCc2[nH]c(-c3c(F)cccc3F)cc2C1` [Example 101, 2-(2,6-Difluoro-phenyl)-5-(5-fluoro-2-methyl-4-methylsulfonyl-phenyl)-4,5,6,7-tetrahydro-1H-pyrrolo[3,2-c]pyridine], the inhibition at 10 µM on CRAC channel is > 70%. The IC50 in assay [1] was < 0.5 µM.
